Results: patent US20130030000A1, “PHARMACEUTICAL COMPOSITIONS FOR THE TREATMENT OF PAIN AND OTHER INDICATIONS” (priority 2010, published 2013)
Where a name gives a salt, the structure may show the parent alone.

target: T1, Human FAAH (Homo sapiens, UniProt O00519); experiment: Human FAAH lysate assay (CHO cell lysate expressing FAAH, AAMCA or 3H-anandamide hydrolysis); assay type: biochemical; settings: B series; read-out: Human FAAH lysate assay: IC50
T1 construct: The full length FAAH was subcloned into the mammalian expression vector, peDEF.neo
T1 sequence (O00519 1-579): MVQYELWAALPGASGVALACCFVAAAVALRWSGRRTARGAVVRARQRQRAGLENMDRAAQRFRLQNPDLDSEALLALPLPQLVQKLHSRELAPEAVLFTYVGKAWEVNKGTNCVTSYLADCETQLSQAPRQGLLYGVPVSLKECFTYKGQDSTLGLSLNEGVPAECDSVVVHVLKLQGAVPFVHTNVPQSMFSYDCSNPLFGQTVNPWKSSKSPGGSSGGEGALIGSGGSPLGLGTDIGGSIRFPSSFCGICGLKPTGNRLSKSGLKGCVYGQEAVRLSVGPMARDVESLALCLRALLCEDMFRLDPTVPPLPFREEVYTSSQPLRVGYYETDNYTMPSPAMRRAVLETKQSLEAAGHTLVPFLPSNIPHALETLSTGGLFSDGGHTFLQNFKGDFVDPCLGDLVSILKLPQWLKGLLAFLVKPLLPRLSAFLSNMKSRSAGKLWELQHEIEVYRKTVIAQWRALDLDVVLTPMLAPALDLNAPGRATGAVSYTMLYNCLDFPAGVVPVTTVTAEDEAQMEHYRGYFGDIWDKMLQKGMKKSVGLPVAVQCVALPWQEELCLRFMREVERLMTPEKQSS
Excerpt: To assist in assay development stable cell lines for human, murine and rat full length FAAH were developed. […] The full length FAAH was subcloned into the mammalian expression vector, peDEF.neo, using XbaI and EcoRI restriction sites and used for stable cell line generation.
CHO cells expressing FAAH were used to prepare either crude cell lysate or microsome fractions. To harvest cells, tissue culture media was decanted, the monolayer washed three times with Ca^++Mg^++ free PBS and cells recovered after […] in enzyme free dissociation media (Millipore Corp, Billerica, Mass.). Cells were collected by centrifuging at 2000 rpm for 15 min. and the cell pellet re-suspended with 50 mM HEPES (pH 7.4) containing 1 mM EDTA and the protease inhibitors aprotinin (1 mg/ml) and leupeptin (100 μM). The suspension was sonicated at 4° C. and the cell lysate recovered after centrifuging at 12,000×g (14,600 rpm, SS34 rotor) for 20 min at 4° C. to form a crude pellet of cell debris, nuclei, peroxisomes, lysosomes, and mitochondria; the supernatant or cell lysate was used for FAAH enzyme assay. In some cases, microsomes fractions enriched in FAAH were prepared by centrifuging the cell lysate further at 27,000 rpm (100,000×g) in SW28 rotor for 50 minutes at 4° C. The pellet containing FAAH-enriched microsomes was re-suspend in 50 mM HEPES, (pH 7,4) 1 mM EDTA, and any remaining DNA sheared by passage of material through a 23 gauge needle and aliquots of enzyme were store at −80° C. prior to use.
Assays are performed on either cell lysate or microsome fractions prepared as described or in whole cell format employing either the fluorescent substrate AAMCA (Cayman chemical, Ann Arbor, Mich.,) or ^3H-anandamide ([ETHANOLAMINE-1-3H] American Radiolabeled Chemicals; 1 mCi/ml). The cell lysate or microsome assay is performed in Costar black wall, clear bottom plates by adding FAAH_CHO (whole cell, cell lysate or microsome) in assay buffer (50 mM Phosphate, pH 8.0, 1 mM EDTA, 200 mM KCl, 0.2% glycerol, 0.1% fatty acid free BSA) to each well, followed by either DMSO or compound and allowed to incubate at 22-25° C. for fifteen minutes. AAMCA substrate was used to achieve a final concentration of 1 μM and reaction allowed to proceed at room temperature for 1-3 hours. […] Whole cell assay is conducted with cells harvested after rinsing tissue culture flasks three times with Ca^++Mg^++ free PBS, incubating for 10 mm in Enzyme free dissociation media and centrifuging for 5 minutes at 1,000 rpm in table top centrifuge. Cells are resuspended in assay buffer at desired cell number in (4×10^4 cells/assay in 96-well format; 1×10^4 cells/assay in 384-well format) and assayed as described.
Alternatively, assays are performed using anandamide [ethanolamine 1-^3H] (specific activity of 10 Ci/mmol) diluted with cold anandamide to achieve a final assay concentration of 1 μM anandamide (˜50,000 cpm). Enzyme (CHO cell lysate, brain or liver homogenate) is incubated in assay buffer (50 mM Phosphate, pH 8.0, 1 mM EDTA, 200 mM KCl, 0.2% glycerol, 0.1% fatty acid free BSA) with inhibitor at 25° C. for 30 minutes. The reaction was terminated by addition of 2 volumes of chloroform:methanol (1:1) and mixed by vortexing. Following a centrifugation step, 2000 rpm for 10 min. at room temperature, the aqueous phase containing the released […] was recovered and quantitated by liquid scintillation as a reflection of FAAH enzyme activity.

SMILES | IC50
CN(C)C(=O)[C@H]1C[C@@H]1c1ccc(-c2ncn(C)c2Sc2ccc(Cl)cc2)cc1 [Example 9B] | 0.3 nM
CN(C)C(=O)[C@H]1C[C@@H]1c1ccc(-c2nc[nH]c2Sc2ccc(Cl)cn2)cc1 [Example 20B, (1S,2S)-2-(4-{5-[(5-Chloropyridin-2-yl)thio]-1H-imidazol-4-yl}phenyl)-N,N-dimethylcyclopropanecarboxamide] | 650 nM
CN(C)C(=O)[C@H]1C[C@@H]1c1ccc(-c2ncn(C)c2Sc2ccc(Cl)cn2)cc1 [Example 5B, (1S,2S)-2-(4-{5-[(5-Chloropyridin-2-yl)thio]-1-methyl-1H-imidazol-4-yl}phenyl)-N,N-dimethylcyclopropanecarboxamide] | 1 nM
Cc1nnc([C@H]2C[C@@H]2c2ccc(-c3ncn(C)c3Sc3ccc(Cl)cn3)cc2)o1 [Example 19B, 5-Chloro-2-[(1-methyl-4-{4-[(1S,2S)-2-(5-methyl-1,3,4-oxadiazol-2-yl)cyclopropyl]phenyl}-1H-imidazol-5-yl)thio]pyridine] | 46 nM
Cn1cnc(-c2ccc([C@H]3C[C@@H]3c3n[nH]c(=O)o3)cc2)c1Sc1ccc(Cl)cn1 [Example 17B, 5-[(1S,2S)-2-(4-{5-[(5-Chloropyridin-2-yl)thio]-1-methyl-1H-imidazol-4-yl}phenyl)cyclopropyl]-1,3,4-oxadiazol-2(3H)-one] | 4.5 nM
CN(C)C(=O)[C@H]1C[C@@H]1c1ccc(-c2ncn(CCF)c2Sc2ccc(Cl)cn2)cc1 [Example 14B, 5-[(5-Chloropyridin-2-yl)thio]-4-(4-{(1S,2S)-2-[(dimethylamino)carbonyl]cyclopropyl}phenyl)-1-(2-fluoroethyl)-1H-imidazol-3-ium trifluoroacetate] | 3.2 nM
Cc1nc(-c2ccc([C@@H]3C[C@H]3C(=O)N(C)C)cc2)c(Sc2ccc(Cl)cn2)n1C [Example 12B, (1R,2R)-2-(4-{5-[(5-Chloropyridin-2-yl)thio]-1,2-dimethyl-1H-imidazol-4-yl}phenyl)-N,N-dimethylcyclopropanecarboxamide] | 13.6 nM
CN(C)C(=O)C1CC1c1ccc(-c2ncn(C)c2Sc2ccc(Cl)cn2)cc1 (stereo not shown) [Example 1B, 2-(4-{5[(5-Chloropyridin-2yl-)thio]-1-methyl-1H-imidazol-4-yl}phenyl)-N,N-dimethylcyclopropanecarboxamide] | 1.4 nM
CN(CCF)C(=O)[C@H]1C[C@@H]1c1ccc(-c2ncn(C)c2Sc2ccc(Cl)cn2)cc1 [Example 11B, (1S,2S)-2-(4-{5-[(5-Chloropyridin-2-yl)thio]-1-methyl-1H-imidazol-4-yl}phenyl)-N-(2-fluoroethyl)-N-methylcyclopropanecarboxamide] | 3 nM
COc1nnc([C@H]2C[C@@H]2c2ccc(-c3ncn(C)c3Sc3ccc(Cl)cn3)cc2)o1 [Example 18B, 5-Chloro-2-[(4-{4-[(1S,2S)-2-(5-methoxy-1,3,4-oxadiazol-2-yl)cyclopropyl]phenyl}-1-methyl-1H-imidazol-5-yl)thio]pyridine] | 15.6 nM
CN(C)C(=O)C1CC1c1ccc(-c2nc(C3CC3)n(C)c2Sc2ccc(Cl)cn2)cc1 (stereo not shown) [Example 13B, 5-[(5-Chloropyridin-2-yl)thio]-2-cyclopropyl-4-(4-{2-[(dimethylamino)carbonyl]cyclopropyl}phenyl)-1-methyl-1H-imidazol-3-ium trifluoroacetate] | 48.3 nM

Second part, the molecule after the results:

IC50 | SMILES
58.4 nM | Cn1cnc(-c2ccc([C@H]3C[C@@H]3c3ncon3)cc2)c1Sc1ccc(Cl)cn1 [Example 35B, 5-chloro-2-[(1-methyl-4-{4-[(1S,2S)-2-(1,2,4-oxadiazol-3-yl)cyclopropyl]phenyl}-1H-imidazol-5-yl)thio]pyridine]
304 nM | Cn1cnc(-c2ccc([C@H]3C[C@@H]3c3n[nH]c(=S)[nH]3)cc2)c1Sc1ccc(Cl)cn1 [Example 32B, 5-[(1S,2S)-2-(4-{5-[(5-chloropyridin-2-yl)thio]-1-methyl-1H-imidazol-4-yl}phenyl)cyclopropyl]-2,4-dihydro-3H-1,2,4-triazole-3-thione]
893 nM | Cn1cnc(-c2ccc([C@H]3C[C@@H]3c3n[nH]c(=O)n3C)cc2)c1Sc1ccc(Cl)cn1 [Example 34B, 5-[(1S,2S)-2-(4-{5-[(5-chloropyridin-2yl)thio]-1-methyl-1H-imidazol-4-yl}phenyl)cyclopropyl]-4-methyl-2,4-dihydro-3H-1,2,4-triazol-3-one]
95.4 nM | Cn1cnc(-c2ccc([C@H]3C[C@@H]3c3noc(=O)[nH]3)cc2)c1Sc1ccc(Cl)cn1 [Example 36B, 5-[(5-chloropyridin-2-yl)thio]-1-methyl-4-{4-[(1S,2S)-2-(5-oxo-4,5-dihydro-1,2,4-oxadiazol-3-yl)cyclopropyl]phenyl}-1H-imidazol-3-ium trifluoroacetate]
88.4 nM | Cn1cnc(-c2ccc([C@H]3C[C@@H]3CO)cc2)c1Sc1ccc(Cl)cn1 [Example 23B, [(1S,2S)-2-(4-{5-[(5-Chloropyridin-2-yl)thio]-1-methyl-1H-imidazol-4-yl}phenyl)cyclopropyl]methanol]
677 nM | Cn1cnc(-c2ccc([C@H]3C[C@@H]3c3n[nH]c(=S)o3)cc2)c1Sc1ccc(Cl)cn1 [Example 31B, 5-[(1S,2S)-2-(4-{5-[(5-chloropyridin-2-yl)thio]-1-methyl-1H-imidazol-4-yl}phenyl)cyclopropyl]-1,3,4-oxadiazole-2(3H)-thione]
167 nM | Cn1cnc(-c2ccc([C@H]3C[C@@H]3c3nn[nH]n3)cc2)c1Sc1ccc(Cl)cn1 [Example 37B, 5-[(5-chloropyridin-2-yl)thio]-1-methyl-4-{4-[(1S,2S)-2-(2H-tetrazol-5-yl)cyclopropyl]phenyl}-1H-imidazol-3-ium trifluoroacetate]
69.3 nM | Cn1cnc(-c2ccc([C@H]3C[C@@H]3COCCF)cc2)c1Sc1ccc(Cl)cn1 [Example 25B, 5-Chloro-2-{[4-(4-{(1S,2S)-2-[(2-fluoroethoxy)methyl]cyclopropyl}phenyl)-1-methyl-1H-imidazol-5-yl]thio}pyridine]
171 nM | Cn1cnc(-c2ccc([C@H]3C[C@@H]3c3nn(C)c(=O)o3)cc2)c1Sc1ccc(Cl)cn1 [Example 3013, 5-[(1S,2S)-2-(4-{5-[(5-chloropyridin-2-yl)thio]-1-methyl-1H-imidazol-4-yl}phenyl)cyclopropyl]-3-methyl-1,3,4-oxadiazol-2(3H)-one]

same assay, conditions: tables of the B series; read-out: hFAAH lysate IC50

SMILES | IC50
CNC(=O)C1CC1c1ccc(-c2ncn(C)c2Sc2ccc(Cl)cn2)cc1 (stereo not shown) [Example 3B] | 1.4 nM
CNC(=O)[C@H]1C[C@@H]1c1ccc(-c2ncn(CCF)c2Sc2ccc(Cl)cn2)cc1 [Example 15B] | 5.8 nM
CC(C)NC(=O)C1CC1c1ccc(-c2ncn(C)c2Sc2ccc(Cl)cn2)cc1 (stereo not shown) [Example 2B] | 6.3 nM

Other lines, results leading:

IC50 | SMILES
33 nM | COc1cnc(Sc2c(-c3ccc([C@H]4C[C@@H]4c4n[nH]c(=O)o4)cc3)ncn2C)nc1 [Example 40B]
1.8 nM | Cn1cnc(-c2ccc([C@H]3C[C@@H]3c3n[nH]c(=O)o3)cc2)c1Sc1ccc(Cl)cc1F [Example 42B]
